Assay [1] has as its target T1, isolated recombinant JAK1 kinase domain (Homo sapiens, UniProt P23458).
T1 construct: isolated recombinant JAK1 and JAK2 kinase domain
Description: JAK enzyme assay, JAK1 kinase domain (Caliper LabChip). The note with it: 1.5 nM JAK1, ATP 25 μM, Morrison tight binding model. Type of assay: biochemical. An outline of the steps: (§1)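 Recombinant kinase domains phosphorylated a 5-carboxyfluorescein-labelled JAK3-derived peptide for 30 min at 22 °C, and the reaction was stopped with EDTA (50 mM final). Product fraction was measured by Caliper LabChip mobility shift. Ki came from Morrison tight-binding fits corrected for ATP competition (Ki=Ki,app/(1+[ATP]/Km,app)).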

Assay [2] has as its system JAK1-dependent STAT6 phosphorylation downstream of IL-13 stimulation in BEAS-2B cells. The assay can be described thus: JAK1 pathway assay in cell lines: IL-13 p-STAT6 BEAS-2B. Type of assay: cell-based. The note with it: BEAS-2B human bronchial epithelial cells, 1 hr compound, IL-13 15 min, MSD readout. Summed up: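 BEAS-2B cells plated a day ahead in complete growth medium; compounds added 1 hr at 37 °C (0.2% DMSO final), then IL-13 at lot-specific EC90 for 15 min at 37 °C. Phospho-STAT6 in lysates measured by MSD; EC50 is 50% inhibition relative to DMSO control.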

Assay [3] has as its target T2, isolated recombinant JAK2 kinase domain (Homo sapiens, UniProt O60674).
T2 construct: isolated recombinant JAK1 and JAK2 kinase domain
Description: JAK enzyme assay, JAK2 kinase domain (Caliper LabChip). It is filed as biochemical. The note with it: 0.2 nM JAK2, ATP 25 μM, Morrison tight binding model. Summed up:
as §1

These results are taken from patent US20230242530A1, “8-(AZETIDIN-1-YL)-[1,2,4]TRIAZOLO[1,5-A]PYRIDINYL COMPOUNDS, COMPOSITIONS AND METHODS OF USE THEREOF” (Genentech, Inc., priority 2016, published 2023).

As usually defined, the Ki is the dissociation constant of the complex between target and ligand, obtained from inhibition or displacement. Usually EC50 stands for the concentration giving half of the maximal effect. Lower therefore signals greater potency.

T1 sequence (P23458 875-1153 limits assumed): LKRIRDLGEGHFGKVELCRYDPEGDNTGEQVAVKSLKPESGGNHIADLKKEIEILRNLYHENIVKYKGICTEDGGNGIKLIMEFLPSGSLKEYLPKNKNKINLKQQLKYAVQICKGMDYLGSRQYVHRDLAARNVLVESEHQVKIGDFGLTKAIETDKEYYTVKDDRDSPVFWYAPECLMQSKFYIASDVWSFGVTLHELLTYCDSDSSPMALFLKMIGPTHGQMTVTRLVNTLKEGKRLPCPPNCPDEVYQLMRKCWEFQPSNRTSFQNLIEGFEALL
T2 sequence (O60674 849-1124 limits assumed): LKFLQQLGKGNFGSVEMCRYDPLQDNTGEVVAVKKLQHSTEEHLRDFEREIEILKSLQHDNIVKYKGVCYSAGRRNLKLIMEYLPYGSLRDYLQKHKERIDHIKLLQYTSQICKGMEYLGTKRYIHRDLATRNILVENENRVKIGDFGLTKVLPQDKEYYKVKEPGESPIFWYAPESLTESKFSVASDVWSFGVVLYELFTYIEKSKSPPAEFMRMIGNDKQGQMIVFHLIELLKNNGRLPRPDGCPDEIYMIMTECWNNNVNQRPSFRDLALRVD

Take `CN1CCN(C(=O)c2ccc(Nc3nc4c(N5CC(CC#N)(n6cc(C7CCOCC7)cn6)C5)cccn4n3)cc2)CC1` [Example 113, 2-[1-[2-[4-(4-methylpiperazine-1-carbonyl)anilino]-[1,2,4]triazolo[1,5-a]pyridin-8-yl]-3-(4-tetrahydropyran-4-ylpyrazol-1-yl)azetidin-3-yl]acetonitrile]: the inhibition constant Ki came to 0.4 nM in assay [1] and 0.6 nM in assay [3]. Also, the response in assay [2] was half-maximal at 43 nM (EC50).
In the case of `CSc1ccc(C2(CC#N)CN(c3cccn4nc(Nc5cnn(CC(=O)N6CCN(C)CC6)c5)nc34)C2)cc1` [Example 14], the Ki is 1.8 nM in assay [1] and 4.5 nM in assay [3]. In addition, a half-maximal response in assay [2] (EC50) required 72 nM.
The matching figures for `CCc1cnn(C2(CC#N)CN(c3cccn4nc(Nc5cnn(CCO)c5)nc34)C2)c1` [Example 133, 2-[3-(4-ethylpyrazol-1-yl)-1-[2-[[1-(2-hydroxyethyl)pyrazol-4-yl]amino]-[1,2,4]triazolo[1,5-a]pyridin-8-yl]azetidin-3-yl]acetonitrile]: 0.3 nM, 0.3 nM and 12 nM.
The matching figures for `N#CCC1(n2cc(C(F)(F)F)cn2)CN(c2cccn3nc(Nc4cnn(CCCO)c4)nc23)C1` [Example 136]: 0.9 nM, 0.8 nM and 20 nM.
The matching figures for `CCc1cnn(C2(CC#N)CN(c3cccn4nc(Nc5cnn(CC(=O)N6CCC(N(C)CC7(C#N)CC7)CC6)c5)nc34)C2)c1` [Example 45, 1-[[[1-[2-[4-[[8-[3-(cyanomethyl)-3-(4-ethylpyrazol-1-yl)azetidin-1-yl]-[1,2,4]triazolo[1,5-a]pyridin-2-yl]amino]pyrazol-1-yl]acetyl]-4-piperidyl]-methyl-amino]methyl]cyclopropane carbonitrile]: 0.3 nM, 0.8 nM and 21 nM.
Consider `Cn1cc(Nc2nc3c(N4CC(CC#N)(n5cc(OC(F)F)cn5)C4)cccn3n2)cn1` [Example 145, 2-[3-[4-(difluoromethoxy)pyrazol-1-yl]-1-[2-[(l-methylpyrazol-4-yl)amino]-[1,2,4]triazolo[1,5-a]pyridin-8-yl]azetidin-3-yl]acetonitrile], for which the Ki amounted to 0.2 nM in assay [1] and 0.3 nM in assay [3]. In addition, a half-maximal response in assay [2] (EC50) required 6 nM.
Taken in the same sequence, the figures for `CCc1cnn(C2(CC#N)CN(c3cccn4nc(Nc5cnn(CC(=O)N6CCN(CC)CC6)c5)nc34)C2)c1` [Example 41] were 0.5 nM, 1.9 nM and 65 nM.
The matching figures for `CSc1cnn(C2(CC#N)CN(c3cccn4nc(Nc5cn[nH]c5)nc34)C2)c1` [Example 144, 2-[3-(4-methylsulfanyIpyrazol-1-yl)-1-[2-(1H-pyrazol-4-ylamino)-[1,2,4]triazolo[1,5-a]pyridin-8-yl]azetidin-3-yl]acetonitrile]: 0.1 nM, 0.3 nM and 7 nM.
The matching figures for `Cc1ccccc1-c1cnn(C2(CC#N)CN(c3cccn4nc(Nc5cnn(CC(=O)N6CCN(C7COC7)CC6)c5)nc34)C2)c1` [Example 122, formic acid;2-[3-[4-(o-tolyl)pyrazol-1-yl]-1-[2-[[1-[2-[4-(oxetan-3-yl)piperazin-1-yl]-2-oxo-ethyl]pyrazol-4-yl]amino]-[1,2,4]triazolo[1,5-a]pyridin-8-yl]azetidin-3-yl]acetonitrile]: 0.5 nM, 3.7 nM and 43 nM.
With `CCc1cnn(C2(CC#N)CN(c3cccn4nc(Nc5ccc(C(=O)N6CCN(C)CC6)cc5)nc34)C2)c1` [Example 38, 2-(3-(4-ethyl-1H-pyrazol-1-yl)-1-(2-((4-(4-methylpiperazine-1-carbonyl)phenyl)amino)-[1,2,4]triazolo[1,5-a]pyridin-8-yl)azetidin-3-yl)acetonitrile], the figures for the Ki in assay [1] and in assay [3] were 0.7 nM and 4.1 nM, respectively. Further, the midpoint of the response in assay [2], the EC50, lay at 615 nM.
Taken in the same sequence, the figures for `CC(C)c1cnn(C2(CC#N)CN(c3cccn4nc(Nc5cnn(CC(=O)N6CCN(C)CC6)c5)nc34)C2)c1` [Example 56, formic acid;2-[3-(4-isopropyipyrazol-1-yl)-1-[2-[[1-[2-(4-methylpiperazin-1-yl)-2-oxo-ethyl]pyrazol-4-yl]amino]-[1,2,4]triazolo[1,5-a]pyridin-8-yl]azetidin-3-yl]acetonitrile] were 2.3 nM, 10.5 nM and 319 nM.
The matching figures for `CCc1cnn(C2(CC#N)CN(c3cccn4nc(Nc5cnn(CC(=O)N6CCC(CN7CCOCC7)CC6)c5)nc34)C2)c1` [Example 53, 2-[3-(4-ethylpyrazol-1-yl)-1-[2-[[1-[2-[4-(morpholinomethyl)-1-piperidyl]-2-oxo-ethyl]pyrazol-4-yl]amino]-[1,2,4]triazolo[1,5-a]pyridin-8-yl]azetidin-3-yl]acetonitrile]: 0.9 nM, 0.6 nM and 31 nM.
The matching figures for `CCc1cnn(C2(CC#N)CN(c3cccn4nc(Nc5cnn[nH]5)nc34)C2)c1` [Example 152, 2-(1-(2-((1H-1,2,3-triazol-5-yl)amino)-[1,2,4]triazolo[1,5-a]pyridin-8-yl)-3-(4-ethyl-1H-pyrazol-1-yl)azetidin-3-yl)acetonitrile]: 0.7 nM, 0.1 nM and 5 nM.
In the case of `CN1CCN(C(=O)Cn2cc(Nc3nc4c(N5CC(CC#N)(CCc6ccccc6)C5)cccn4n3)cn2)CC1` [Example 76], the Ki in assay [1] is 0.3 nM; in assay [3] it was 0.9 nM. In assay [2], the response was half-maximal at 16 nM (EC50).
The matching figures for `CCc1cnn(C2(CC#N)CN(c3cccn4nc(Nc5ccc6c(c5)CCN([C@H]5CCOC5)C6)nc34)C2)c1` (stereo in doubt) [Example 62, 2-[3-(4-ethylpyrazol-1-yl)-1-[2-[[2-[rac-(3S)-tetrahydrofuran-3-yl]-3,4-dihydro-1H-isoquinolin-6-yl]amino]-[1,2,4]triazolo[1,5-a]pyridin-8-yl]azetidin-3-yl]acetonitrile]: 0.4 nM, 0.4 nM and 49 nM.
Taken in the same sequence, the figures for `CC(C)c1cnn(C2(CC#N)CN(c3cccn4nc(Nc5cnn(C)c5)nc34)C2)c1` [Example 138, 2-[3-(4-isopropylpyrazol-1-yl)-1-[2-[(l-methylpyrazol-4-yl)amino]-[1,2,4]triazolo[1,5-a]pyridin-8-yl]azetidin-3-yl]acetonitrile] were 0.2 nM, 0.3 nM and 16 nM.
Regarding `CCc1cnn(C2(CC#N)CN(c3cccn4nc(Nc5cnn(CC(=O)N6CCN(C)CC6)c5)nc34)C2)c1` [Example 1, 2-[3-(4-ethyl-1H-pyrazol-1-yl)-1-[2-([1-[2-(4-methylpiperazin-1-yl)-2-oxoethyl]-1H-pyrazol-4-yl]amino)-[1,2,4]triazolo[1,5-a]pyridin-8-yl]azetidin-3-yl]acetonitrile], the figures for the Ki in assay [1] and in assay [3] were 0.8 nM and 2 nM, respectively. For the same molecule, the EC50 in assay [2] was 29 nM.
The matching figures for `CCc1cnn(C2(CC#N)CN(c3cccn4nc(Nc5ccc(CC(=O)N6CCN(C)CC6)cc5)nc34)C2)c1` [Example 73, 2-[3-(4-ethylpyrazol-1-yl)-1-[2-[4-[2-(4-methylpiperazin-1-yl)-2-oxo-ethyl]anilino]-[1,2,4]triazolo[1,5-a]pyridin-8-yl]azetidin-3-yl]acetonitrile]: 0.7 nM, 0.3 nM and 18 nM.
Taken in the same sequence, the figures for `CC(C)Sc1cnn(C2(CC#N)CN(c3cccn4nc(Nc5cnn(CC(=O)N6CCN(C)CC6)c5)nc34)C2)c1` [Example 105, 2-[3-(4-isopropylsulfanylpyrazol-1-yl)-1-[2-[[1-[2-(4-methylpiperazin-1-yl)-2-oxo-ethyl]pyrazol-4-yl]amino]-[1,2,4]triazolo[1,5-a]pyridin-8-yl]azetidin-3-yl]acetonitrile] were 0.7 nM, 1.6 nM and 42 nM.
Taken in the same sequence, the figures for `CN1CCN(C(=O)Cn2cc(Nc3nc4c(N5CC(CC#N)(N6CCC(C#N)CC6)C5)cccn4n3)cn2)CC1` [Example 13, 1-[3-(cyanomethyl)-1-[2-[[1-[2-(4-methylpiperazin-1-yl)-2-oxo-ethyl]pyrazol-4-yl]amino]-[1,2,4]triazolo[1,5-a]pyridin-8-yl]azetidin-3-yl]piperidine-4-carbonitrile] were 1.6 nM, 5.3 nM and 82 nM.
Take `COc1cnn(C2(CC#N)CN(c3cccn4nc(Nc5cnn(C)c5)nc34)C2)c1` [Example 137, 2-[3-(4-methoxypyrazol-1-yl)-1-[2-[(l-methylpyrazol-4-yl)amino]-[1,2,4]triazolo[1,5-a]pyridin-8-yl]azetidin-3-yl]acetonitrile]: the Ki in assay [1] came to 0.5 nM; in assay [3], 2.8 nM. In assay [2], this molecule had an EC50 of 39 nM.
Turning to `CC(C)(C#N)CCN1CCN(C(=O)Cn2cc(Nc3nc4c(N5CC(CC#N)(n6cc(C(F)(F)F)cn6)C5)cccn4n3)cn2)CC1` [Example 107, 4-[4-[2-[4-[[8-[3-(cyanomethyl)-3-[4-(trifluoromethyl)pyrazol-1-yl]azetidin-1-yl]-[1,2,4]triazolo[1,5-a]pyridin-2-yl]amino]pyrazol-1-yl]acetyl]piperazin-1-yl]-2,2-dimethyl-butanenitrile], the Ki in assay [1] came to 0.4 nM; in assay [3] it was 1.1 nM. Moreover, in assay [2], the midpoint of the response, the EC50, lay at 44 nM.
